The record followed here is paper PMC4578755, “Development of novel cellular histone-binding and chromatin-displacement assays for bromodomain drug discovery” (Epigenetics & Chromatin, 2015).

The assay addresses T1, TRIM24-PB chromatin binding in HeLa TRIM24-PB cells (Homo sapiens, UniProt O15164).
T1 construct: The FLAG-TRIM24-PB construct (residues 810–1050) was generated by PCR amplification; expressed in transfected cells
T1 sequence (O15164 810-1050): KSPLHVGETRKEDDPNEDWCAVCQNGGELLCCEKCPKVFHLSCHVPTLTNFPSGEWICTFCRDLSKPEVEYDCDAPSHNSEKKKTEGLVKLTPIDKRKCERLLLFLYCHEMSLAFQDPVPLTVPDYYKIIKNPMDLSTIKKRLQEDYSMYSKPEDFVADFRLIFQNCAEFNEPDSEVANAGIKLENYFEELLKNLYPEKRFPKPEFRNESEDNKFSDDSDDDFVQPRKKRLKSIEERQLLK
The assay can be described thus: In situ cell extraction with IF in HeLa TRIM24-PB cells. Type of assay: cell-based. Here is the method:
OV90 or HeLa cells (20,000 cells/100 µL) were seeded into 96-well plates (Corning Costar #3603) using RPMI or DMEM medium, respectively, supplemented with 10 % FBS and grown overnight. Test agents were serially diluted in DMSO (with or without SAHA) to generate 10X master compound plates. From here, 11 µL was transferred into each well containing 100 µL of growth media followed by shaking on a rotation table (15 min, 300 rpm at RT) and incubation at 37 °C for 2 h. Plates were washed once with PBS (150 µL/well) and then with cold, freshly prepared Cytoskeleton (CSK) Buffer (10 mM PIPES, 300 mM Sucrose, 100 mM NaCl, 3 mM MgCl2; pH = 6.8). Immediately thereafter, soluble, non-chromatin-bound proteins were extracted by addition of cold CSK Buffer supplemented with 0.5 % Triton X-100 (150 µL per well) for 10 min at 4 °C followed by 4 % paraformaldehyde fixation (10 min at RT) (Additional file 1: Table S3).
Standard IF procedures were used. Briefly, cells were permeabilized (0.5 % Triton X-100 in PBS) for 15 min and incubated with blocking solution (DAKO #X0909) for 30 min. The following primary antibodies were used: goat anti-V5 (Bethyl #A190-119A) 1:200; mouse anti-FLAG (Sigma #F1804) 1:200; rabbit anti-BRD4 (Abcam #ab128874) 1:200; rabbit anti-TRIM24 (Proteintech #14208-1-AP) 1:400; rabbit anti-K3K23Ac (Cell Signaling #8848) 1:200, and mouse anti-histone H3 (Active Motif #39763) 1:4000. Alexa Fluor-conjugated secondary antibodies were from Invitrogen and Hoechst 33342 (Invitrogen, #H3570) was used for nuclei counterstaining (10 µg/ml). For each Alexa fluorochrome, images (4–10 fields per well; 20X magnifications) were acquired using the Operetta High-Content Screening System (PerkinElmer). Image analysis was performed in Harmony software (PerkinElmer) by selecting nuclei and cytoplasm in Hoechst channel. Gating for single cells of flat morphology was done based on nuclei area, roundness and intensity of Hoechst in the nucleus and in the cytoplasm. In every gated cell, the mean signal intensity value for each fluorochrome was calculated separately in nucleus and cytoplasm. The specific nuclear signal was estimated subtracting mean cytoplasmic value from nuclear; and average value was calculated using at least 1000 cells in each well.
Supplemental Table S3 (Zhan et al.)
Table S3. In Situ Cell Extraction Procedure (IF)
Step Parameter Solution Volume Time Temp (°C)
Seed cells DMEM supplemented with 10 % FBS 37°C,
2 SAHA treatment SAHA (50 µM) in DMEM with 10% FBS 12 µL 2h 37°C,
3 Prepare Master 100X final concentration in assay 30 µL […]
Image analysis: The analysis was performed in Harmony (PerkinElmer) software by selecting nuclei and cytoplasm in Hoechst 33342 channel . […] For each channel “mean nuclear signal“ was calculated as “mean […]

With `Cc1nc(S(=O)(=O)Nc2cc3c(cc2Oc2cccc(OCC(C)C)c2)n(C)c(=O)n3C)cn1C` [IACS-6558, N-{1,3-dimethyl-6-[3-(2-methylpropoxy)phenoxy]-2-oxo-2,3-dihydro-1H-1,3-benzodiazol-5-yl}-1,2-dimethyl-1H-imidazole-4-sulfonamide], the “Time to displacement of TRIM24-PB from chromatin” value (HeLa TRIM24-PB) is recorded as no more than 5 min. The “IF signal of chromatin-bound TRIM24-PB” value (HeLa TRIM24-PB with SAHA, anti-FLAG and anti-TRIM24 antibodies, 2 h) was “reducing the IF signal to baseline”.
In the case of `O=C(CCCCCCC(=O)Nc1ccccc1)NO` [SAHA, Suberoylanilide Hydroxamic Acid], the “SAHA-induced TRIM24-PB chromatin binding (assay window)” value reads like this: (anti-FLAG antibody) “fivefold”; (anti-TRIM24 antibody) “twofold”.
